Several values for one entry are separate records, joined by “and”; a condition that tells them apart may be missing. Identical values can stand only once. Like-named read-outs stand apart in the source and are kept apart here.
Columns and labels:
5HT2C receptors [1] = target: T1, 5HT2C receptors (Homo sapiens, UniProt P28335); assay: Human 5-HT2C functional high throughput screening assay in CHO-K1 cells (calcium flux); type: cell-based; parameters: expressed in transfected cells; host or cells: CHO-K1 cells; details: for Emax: 5-HT2C, maximum functional response as percentage relative to the effect of serotonin; for EC50: CHO-K1 cells, calcium flux
T1 sequence (P28335 33-458): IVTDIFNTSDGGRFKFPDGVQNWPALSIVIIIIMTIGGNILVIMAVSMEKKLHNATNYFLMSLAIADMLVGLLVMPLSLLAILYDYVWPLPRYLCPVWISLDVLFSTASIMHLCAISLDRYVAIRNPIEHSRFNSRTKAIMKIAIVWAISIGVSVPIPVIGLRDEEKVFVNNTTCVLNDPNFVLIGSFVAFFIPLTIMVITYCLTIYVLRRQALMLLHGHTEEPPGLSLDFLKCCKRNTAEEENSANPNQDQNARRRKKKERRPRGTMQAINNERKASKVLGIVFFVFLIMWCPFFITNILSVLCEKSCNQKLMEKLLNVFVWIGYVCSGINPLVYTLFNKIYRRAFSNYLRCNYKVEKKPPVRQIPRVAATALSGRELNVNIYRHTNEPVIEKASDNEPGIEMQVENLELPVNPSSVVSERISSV
In short: (§1)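 Frozen CHO-K1 cells overexpressing the receptor were plated, serum-starved overnight, then loaded with Ca4 dye plus 2.5 mM probenecid for 60 min at room temperature. FLIPR fluorescence (ex 480/em 530 nm, 25 °C) after compound addition was normalized to serotonin; EC50 and Emax came from 4-parameter logistic fits.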

[2] = target: T2, human serotonin 5-HT2c receptor (Homo sapiens, UniProt P28335); assay: Human 5-HT2C receptor radioligand binding assay (agonist site, [125I]DOI); details: 5-HT2c agonist site; transfected CHO cell membranes; 0.2 nM [125I](±)DOI
T2 construct: expressed in transfected cells; host or cells: CHO cells (membrane homogenates)
T2 sequence (P28335 33-458): T1 sequence (P28335 33-458)
Procedure: (i) Human 5-HT2C Receptor Radioligand Binding Assay
Affinity of compounds for the agonist site of the […], receptor in transfected CHO cells was determined in a radioligand binding assay essentially as described by Bryant, H. U., et al., Life Sciences (1996) 59(15), 1259-1268.

5HT2C receptors [3] = target: T1, 5HT2C receptors; assay: Human 5-HT2C functional assay in CHO-K1 cells (96-well, calcium, FLIPR); type: cell-based; parameters: expressed in transfected cells; details: 5-HT2c agonist activity, CHO-K1 cells stably transfected
Procedure: (iv) Human 5-HT2C Functional Assay in CHO-K1 Cells
Functional activity was determined by testing the effect of the compounds on intracellular calcium levels in CHO-K1 cells stably transfected with the human 5-HT2C receptor. Cells were seeded into 96-well plates at 60,000 cells/well and grown overnight in tissue culture medium (UltraCHO™ (Lonza), containing 1% dFCS, 250 μg/mL Zeocin, 400 μg/mL Geneticin) at 37° C. and 5% CO2. Growth medium was replaced by medium without dFCS for overnight incubation. Cells were loaded with a fluorescent calcium-sensitive dye in the presence of probenicid according to the manufacturer's protocol (FLIPR Ca4 Assay kit, Molecular Devices). Serial compound dilutions (final concentrations 10^−10 to 10^−5 M) were added to the cells and the maximum calcium response was determined using a FLIPR instrument (Molecular Devices). Concentration-response curves were fitted using a four-parameter logistic equation (GraphPad Prism). The concentration at which the compound exerts half its maximal effect is named the ‘effective concentration 50’ or ‘EC50’ and is listed in Table 5.

5HT2B receptors = target: T3, 5HT2B receptors (Homo sapiens, UniProt P41595); assay: Human 5-HT2B functional high throughput screening assay in CHO-K1 cells (calcium flux); type: cell-based; details: for EC50: CHO-K1 cells, calcium flux
T3 construct: expressed in transfected cells; host or cells: CHO-K1 cells
In short: as §1

5HT2C receptors [4] = target: T1, 5HT2C receptors; assay: Human 5-HT2C functional assay in 1321N1 cells (intracellular calcium, FLIPR); type: cell-based; parameters: expressed in transfected cells; host or cells: 1321N1 cells; details: 5-HT2c agonist activity, maximum calcium response
In short: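 1321N1 cells stably expressing human 5-HT2C were serum-starved overnight and loaded with Fluo-4 AM and 1% probenecid. Compounds (10^−10 to 10^−5 M) were tested alone or with 10^−9 M serotonin, and peak calcium was read by FLIPR. EC50 from four-parameter logistic fit.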

[5] = 5-HT2B, maximum functional response as percentage relative to the effect of serotonin
[6] = 5-HT2C agonist activity, read-out: EC50
[7] = 5-HT2B agonist activity, read-out: EC50

T3 sequence (P41595 whole entry): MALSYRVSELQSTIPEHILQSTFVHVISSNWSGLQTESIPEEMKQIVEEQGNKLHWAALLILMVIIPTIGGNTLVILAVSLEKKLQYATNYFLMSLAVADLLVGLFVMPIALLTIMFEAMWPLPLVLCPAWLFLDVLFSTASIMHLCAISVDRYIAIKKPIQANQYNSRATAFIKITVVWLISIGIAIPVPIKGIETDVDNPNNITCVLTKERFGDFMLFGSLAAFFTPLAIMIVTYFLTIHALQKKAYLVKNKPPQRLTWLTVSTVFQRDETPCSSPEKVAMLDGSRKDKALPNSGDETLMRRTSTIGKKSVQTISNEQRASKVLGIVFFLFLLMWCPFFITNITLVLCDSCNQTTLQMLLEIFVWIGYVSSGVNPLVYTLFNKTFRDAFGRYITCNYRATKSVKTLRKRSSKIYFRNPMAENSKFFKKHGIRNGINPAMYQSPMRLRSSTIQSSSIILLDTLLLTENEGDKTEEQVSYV

| EC50 (5HT2C receptors [1]; [6]) [nM] | Emax (5HT2C receptors [1]; CHO-K1, read-out: Emax) [%] | EC50 (5HT2B receptors; [7]) [nM] | Structure (SMILES) | Emax (5HT2C receptors [1]; CHO-K1) [%] | EC50 (5HT2C receptors [1]; EC50, 5-HT2C agonist activity) [nM] | Ki [2] [nM] | EC50 (5HT2C receptors [3]) [nM] | Emax (5HT2B receptors; [5]) | EC50 (5HT2B receptors; EC50, 5-HT2B agonist activity) | EC50 (5HT2C receptors [4]) [nM] | Emax (5HT2B receptors; CHO-K1) [%] | Emax (5HT2C receptors [1]) [%] |
| --- | --- | --- | --- | --- | --- | --- | --- | --- | --- | --- | --- | --- |
| – | – | – | CN1C[C@H]2CNC(=O)c3cc(Cl)ccc3[C@@H]2C1 (relative stereo) [Example 53, Trans-8-chloro-2-methyl-1,2,3,3a,4,5-hexahydrobenzo[e]pyrrolo[3,4-c]azepin-6(10bH)-one] | 100 | 20 | 8.1 | 2.93 | inactive | > 10000 nM | – | – | – |
| 200 | 120 | > 10000 | O=C1NC[C@@H]2CN(Cc3ccccc3)C[C@H]2c2cc(F)ccc21 (relative stereo) [Example 63, Trans-2-benzyl-9-fluoro-1,2,3,3a,4,5-hexahydrobenzo[c]pyrrolo[3,4-e]azepin-6(10bH)-one] | – | – | 140 | 145 | inactive | – | – | – | – |
| – | – | – | O=C1NC[C@@H]2CNC[C@H]2c2cc(F)ccc21 (relative stereo) [Example 64, Trans-9-fluoro-1,2,3,3a,4,5-hexahydrobenzo[c]pyrrolo[3,4-e]azepin-6(10bH)-one] | – | – | 1000 | 17 | – | – | – | – | – |
| – | – | – | O=C1NC[C@@H]2CNC[C@H]2c2c(F)cccc21 (relative stereo) [Example 67, Trans-10-fluoro-1,2,3,3a,4,5-hexahydrobenzo[c]pyrrolo[3,4-e]azepin-6(10bH)-one] | > 120 | 5 | 43 | 2.5 | – | 1000 nM and > 10000 nM | 6.55 | 110 | – |
| 7 | 110 | > 10000 | CN1C[C@H]2CNC(=O)c3cc(-c4ccccc4)ccc3[C@@H]2C1 (relative stereo) [Example 86, Trans-2-methyl-8-phenyl-1,2,3,3a,4,5-hexahydrobenzo[e]pyrrolo[3,4-c]azepin-6(10bH)-one] | – | – | – | 3.7 | inactive | – | – | – | – |
| – | – | – | CN1C[C@H]2CNC(=O)c3ccc(F)cc3[C@@H]2C1 (relative stereo) [Example 90, Trans-9-fluoro-2-methyl-1,2,3,3a,4,5-hexahydrobenzo[e]pyrrolo[3,4-c]azepin-6(10bH)-one] | 85 | 300 | – | 14.5 | inactive | > 10000 nM | – | – | – |
| – | – | – | CN1C[C@H]2CNC(=O)c3cc(F)ccc3[C@@H]2C1 (relative stereo) [Example 91, Trans-8-fluoro-2-methyl-1,2,3,3a,4,5-hexahydrobenzo[e]pyrrolo[3,4-c]azepin-6(10bH)-one] | > 120 | 20 | – | 1.5 | – | 3000 nM | – | 25 | – |
| 100 | > 120 | > 10000 | c1ccc(CN2C[C@@H]3CCOc4ccccc4[C@H]3C2)cc1 (relative stereo) [Example 93, Trans-2-benzyl-2,3,3a,4,5,10b-hexahydro-1H-[1]benzoxepino[4,5-c]pyrrole] | – | – | – | 4.4 | inactive | – | – | – | – |
| – | – | – | c1ccc2c(c1)OCC[C@H]1CNC[C@H]21 (relative stereo) [Example 94, Trans-2,3,3a,4,5,10b-hexahydro-1H-[1]benzoxepino[4,5-c]pyrrole] | > 120 | 30 | – | 124 | – | 500 nM | – | 45 | – |
| – | – | – | Clc1ccc2c(c1)[C@H]1CNC[C@@H]1CCO2 (relative stereo) [Example 95, Trans-9-chloro-2,3,3a,4,5,10b-hexahydro-1H-[1]benzoxepino[4,5-c]pyrrole] | > 120 | – | – | 1.7 | – | – | – | 35 | – |
| – | – | – | c1ccc2c(c1)OCC[C@H]1CNC[C@@H]21 (relative stereo) [Example 96, Cis-2,3,3a,4,5,10b-hexahydro-1H-[1]benzoxepino[4,5-c]pyrrole] | 120 | 200 | 380 | 36.9 | – | 1000 nM | – | 50 | – |
| – | – | – | O=C1NC[C@@H]2CNC[C@H]2c2cccc(F)c21 (single isomer, unassigned) [Example 62, Trans-7-fluoro-1,2,3,3a,4,5-hexahydrobenzo[e]pyrrolo[3,4-c]azepin-6(10bH)-one] | – | 1.2 | 8.2 | 0.3 | 80% | 700 nM | – | – | >120 |
